Test results as given in US9169209B2, “Compounds and compositions for the inhibition of NAMPT” (FORMA TM, LLC, priority 2011, dated 2015).

Key:
NAMPT = NAMPT (Homo sapiens (Human), UniProt P43490); assay: Biochemical Inhibition Assay (NAMPT enzymatic reaction, NMN quantified by mass spectrometry); conditions: recombinant His-tagged NAMPT, 33 nM; 1 μM NAM; read-out: Biochem IC50
Experimental: Recombinant His-tagged NAMPT was produced in E. coli cells, purified over a Ni column, and further purified over a size-exclusion column by XTAL Biostructures.
The NAMPT enzymatic reactions were carried out in Buffer A (50 mM Hepes pH 7.5, 50 mM NaCl, 5 mM MgCl2, and 1 mM THP) in 96-well V-bottom plates. The compound titrations were performed in a separate dilution plate by serially diluting the compounds in DMSO to make a 100× stock. […] The compound and enzyme mix was incubated for 15 minutes at room temperature, then 10 μL of 10× substrate and co-factors in Buffer A were added to the test well to make a final concentration of 1 μM NAM, 100 μM 5-Phospho-D-ribose 1-diphosphate (PRPP), and 2.5 mM Adenosine 5′-triphosphate (ATP). The reaction was allowed to proceed for 30 minutes at room temperature, then was quenched with the addition of 11 μL of a solution of formic acid and L-Cystathionine to make a final concentration of 1% formic acid and 10 μM L-Cystathionine. Background and signal strength was determined by addition (or non-addition) of a serial dilution of NMN to a pre-quenched enzyme and cofactor mix.
A mass spectrometry-based assay was used to measure the NAMPT reaction product (NMN) and the internal control (L-Cystathionine). NMN and L-Cystathionine were detected using the services of Biocius Lifesciences with the RapidFire system. In short, the NMN and L-Cystathionine are bound to a graphitic carbon cartridge in 0.1% formic acid, eluted in 30% acetonitrile buffer, and injected into a Sciex 4000 mass spectrometer. The components of the sample were ionized with electrospray ionization and the positive ions were detected. […] The fragments are quantified and the analyzed by the following method.
First the NMN signal is normalized to the L-Cystathionine signal by dividing the NMN signal by the L-Cystathionine signal for each well. The signal from the background wells are averaged and subtracted from the test plates.
Wherein x denotes the average signal of the compound treated wells and y denotes the average signal of the DMSO treated wells.
IC50s are Determined Using Excel and this Formula.
Wherein X denotes the compound concentration 1, Y denotes the compound concentration 2, XX denotes the % inhibition at compound concentration 1 (X), and YY denotes the % inhibition at compound concentration 2 (Y).

A2780 cells = assay: In-Vitro Cell Proliferation Assay (SRB, 72 hours); assay type: cell-based; conditions: Homo sapiens, A2780, 72 h, A2780 cells, 72 hours, sulforhodamine B; read-out: A2780 IC50
Experimental: After overnight incubation at 37° C. and 5% CO2, the compound titrations were performed in a separate dilution plate by serially diluting the compounds in DMSO to make a 1000× stock. The compounds were then further diluted to 10× final concentration in culture media, whereupon 20 μL of each dilution was added to the plated cells with controls (e.g. DMSO and blank) to make a final volume of 200 μL. The final DMSO concentration in each well was 0.1%. The plates were then incubated for 72 hours at 37° C. in a 5% CO2 incubator. The number of viable cells was then assessed using sulforhodamine B (SRB) assay. Cells were fixed at 4° C. for 1 hour with the addition of 50 μL 30% trichloroacetic acid (TCA) to make a final concentration of 6% TCA. The plates were washed four times with H2O and allowed to dry for at least 1 hour, whereupon 100 μL of a 4% SRB in 1% acetic acid solution was added to each well and incubated at room temperature for at least 30 minutes. The plates were then washed three times with 1% acetic acid, dried, and treated with 100 μL of 10 mM Tris-Base solution. The plates were then read in a microplate reader at an absorbance of 570 nm. Background was generated on a separate plate with media only.
First, the signals from the background plate are averaged and then the background was subtracted from the test plates.
wherein x denotes the average signal of the compound-treated cells and y denotes the average signal of the DMSO-treated cells.
wherein X denotes the compound concentration 1, Y denotes the compound concentration 2, XX denotes the % inhibition at compound concentration 1 (X), and YY denotes the % inhibition at compound concentration 2 (Y).

NAMPT, sequence (P43490 whole entry): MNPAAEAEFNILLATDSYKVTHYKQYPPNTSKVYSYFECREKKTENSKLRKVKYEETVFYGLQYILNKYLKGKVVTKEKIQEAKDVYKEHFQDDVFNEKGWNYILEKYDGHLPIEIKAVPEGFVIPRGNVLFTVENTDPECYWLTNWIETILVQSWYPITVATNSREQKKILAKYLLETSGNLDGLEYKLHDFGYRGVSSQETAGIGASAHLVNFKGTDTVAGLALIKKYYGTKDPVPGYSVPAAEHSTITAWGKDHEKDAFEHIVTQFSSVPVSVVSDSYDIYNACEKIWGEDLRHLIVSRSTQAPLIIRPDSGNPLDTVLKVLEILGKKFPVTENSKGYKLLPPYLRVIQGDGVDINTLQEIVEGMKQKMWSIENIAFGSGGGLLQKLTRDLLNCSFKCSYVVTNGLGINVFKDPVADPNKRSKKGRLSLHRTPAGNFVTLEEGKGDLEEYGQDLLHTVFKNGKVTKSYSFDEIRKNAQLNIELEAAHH

`COCc1cccc(S(=O)(=O)c2ccc(NC(=O)/C=C/c3cccnc3)cc2)c1` [(2E)-N-(4-{[3-(methoxymethyl)benzene]sulfonyl}phenyl)-3-(pyridin-3-yl)prop-2-enamide] gave an IC50 (NAMPT) of 7.7 nM and an IC50 (A2780 cells) of 78 nM.

For `O=C(/C=C/c1cccnc1)Nc1ccc(S(=O)(=O)c2cccc(N3CCOCC3)c2)cc1` [(2E)-N-(4-{[3-(morpholin-4-yl)benzene]sulfonyl}phenyl)-3-(pyridin-3-yl)prop-2-enamide], the IC50 (NAMPT) was 9.2 nM and the IC50 (A2780 cells) was 30.3 nM.

Molecule `CC(C)Oc1cccc(S(=O)(=O)c2ccc(NC(=O)/C=C/c3cccnc3)cc2)c1` [(2E)-N-(4-{[3-(propan-2-yloxy)benzene]sulfonyl}phenyl)-3-(pyridin-3-yl)prop-2-enamide] has an IC50 (NAMPT) of 1.1 nM and an IC50 (A2780 cells) of 48.9 nM.

For `O=C(/C=C/c1cccnc1)Nc1ccc(S(=O)(=O)c2ccc(C(F)(F)F)c(Cl)c2)cc1` [(2E)-N-(4-{[3-chloro-4-(trifluoromethyl)benzene]sulfonyl}phenyl)-3-(pyridin-3-yl)prop-2-enamide], the IC50 (NAMPT) was 43.4 nM and the IC50 (A2780 cells) was 100 to 1000 nM.

`O=C(/C=C/c1cccnc1)Nc1ccc(S(=O)(=O)c2cc(Cl)cc(C(F)(F)F)c2)cc1` [(2E)-N-(4-{[3-chloro-5-(trifluoromethyl)benzene]sulfonyl}phenyl)-3-(pyridin-3-yl)prop-2-enamide] showed an IC50 (NAMPT) of 8.1 nM and an IC50 (A2780 cells) of 58.3 nM.

Molecule `CC(C)COc1cc(F)cc(S(=O)(=O)c2ccc(NC(=O)/C=C/c3cccnc3)cc2)c1` [(2E)-N-(4-{[3-fluoro-5-(2-methylpropoxy)benzene]sulfonyl}phenyl)-3-(pyridin-3-yl)prop-2-enamide] has an IC50 (NAMPT) of 35.4 nM and an IC50 (A2780 cells) of 61.3 nM.

`O=C(/C=C/c1cccnc1)Nc1ccc(S(=O)(=O)c2ccc(-n3cccn3)cc2)cc1` [(2E)-N-(4-{[4-(1H-pyrazol-1-yl)benzene]sulfonyl}phenyl)-3-(pyridin-3-yl)prop-2-enamide] was tested, and the IC50 (NAMPT) was 17.4 nM and the IC50 (A2780 cells) was 71.7 nM.

`CCOCc1ccc(S(=O)(=O)c2ccc(NC(=O)/C=C/c3cccnc3)cc2)cc1` [(2E)-N-(4-{[4-(ethoxymethyl)benzene]sulfonyl}phenyl)-3-(pyridin-3-yl)prop-2-enamide] gave an IC50 (NAMPT) of 7.8 nM and an IC50 (A2780 cells) of 100 to 1000 nM.

In the case of `O=C(/C=C/c1cccnc1)Nc1ccc(S(=O)(=O)c2ccc(N3CCOCC3)cc2)cc1` [(2E)-N-(4-{[4-(morpholin-4-yl)benzene]sulfonyl}phenyl)-3-(pyridin-3-yl)prop-2-enamide], the IC50 (NAMPT) is reported as 24.8 nM and the IC50 (A2780 cells) is reported as 55.3 nM.

In the case of `CC(C)Oc1ccc(S(=O)(=O)c2ccc(NC(=O)/C=C/c3cccnc3)cc2)cc1` [(2E)-N-(4-{[4-(propan-2-yloxy)benzene]sulfonyl}phenyl)-3-(pyridin-3-yl)prop-2-enamide], the IC50 (NAMPT) is reported as 5.4 nM and the IC50 (A2780 cells) is reported as 91.5 nM.

For `O=C(/C=C/c1cccnc1)Nc1ccc(S(=O)(=O)c2ccc(Cl)c(C(F)(F)F)c2)cc1` [(2E)-N-(4-{[4-chloro-3-(trifluoromethyl)benzene]sulfonyl}phenyl)-3-(pyridin-3-yl)prop-2-enamide], the IC50 (NAMPT) was 18.4 nM and the IC50 (A2780 cells) was 122 nM.

Work on `O=C(/C=C/c1cccnc1)Nc1ccc(S(=O)(=O)c2cccc3ccsc23)cc1` [(2E)-N-[4-(1-benzothiophene-7-sulfonyl)phenyl]-3-(pyridin-3-yl)prop-2-enamide] yielded an IC50 (NAMPT) of 16.1 nM and an IC50 (A2780 cells) of 106 nM.

In the case of `Cn1ncc2cc(S(=O)(=O)c3ccc(NC(=O)/C=C/c4cccnc4)cc3)ccc21` [(2E)-N-[4-(1-methyl-1H-indazole-5-sulfonyl)phenyl]-3-(pyridin-3-yl)prop-2-enamide], the IC50 (NAMPT) is reported as 1.9 nM and the IC50 (A2780 cells) is reported as 97.6 nM.

`Cn1ncc2cccc(S(=O)(=O)c3ccc(NC(=O)/C=C/c4cccnc4)cc3)c21` [(2E)-N-[4-(1-methyl-1H-indazole-7-sulfonyl)phenyl]-3-(pyridin-3-yl)prop-2-enamide] was tested, and the IC50 (NAMPT) was 8.9 nM and the IC50 (A2780 cells) was 100 to 1000 nM.

`Cn1c(S(=O)(=O)c2ccc(NC(=O)/C=C/c3cccnc3)cc2)cc2ccccc21` [(2E)-N-[4-(1-methyl-1H-indole-2-sulfonyl)phenyl]-3-(pyridin-3-yl)prop-2-enamide] gave an IC50 (NAMPT) of 21.8 nM and an IC50 (A2780 cells) of 100 to 1000 nM.
